These results are taken from patent US12281102B2, “Inhibitors of APOL1 and methods of using same” (Vertex Pharmaceuticals Incorporated, priority 2020, dated 2025).

Like-named read-outs stand apart in the source and are kept apart here.

For the assay, the target named is T1, G1 APOL1 (Homo sapiens, UniProt O14791, I384M/S342G).
T1 construct: expressed in transfected cells
T1 sequence (O14791 28-398 S342G/I384M): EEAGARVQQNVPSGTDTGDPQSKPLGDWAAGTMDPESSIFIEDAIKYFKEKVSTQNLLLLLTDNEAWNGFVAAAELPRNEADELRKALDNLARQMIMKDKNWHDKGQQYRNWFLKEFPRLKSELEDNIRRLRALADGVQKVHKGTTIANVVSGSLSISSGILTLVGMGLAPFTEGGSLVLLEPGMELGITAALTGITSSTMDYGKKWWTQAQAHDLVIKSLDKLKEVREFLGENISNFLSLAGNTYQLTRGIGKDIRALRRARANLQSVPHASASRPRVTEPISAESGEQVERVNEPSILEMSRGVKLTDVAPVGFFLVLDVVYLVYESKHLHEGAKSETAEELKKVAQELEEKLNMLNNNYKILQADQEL
Put plainly: Acute APOL1 Thallium Assay with inducible stable clones of HEK 293 cells. It is filed as cell-based. The settings on record: HEK 293 T-Rex inducible stable clone expressing G1 APOL1. The procedure, abridged:
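APOL1 pore function was measured as thallium influx, detected by a Tl+-sensitive fluorescent dye loaded as AM ester, on a FLIPR Tetra after Tl+ addition. Cells were HEK T-Rex G1 APOL1 clone DC3.25, 26,000 per well, induced with tetracycline at plating in Opti-MEM assay medium.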

Setting [1] is: read-out: Thallium Assay (IC50).

Turning to `O=C(CCN1CCCC1=O)NC[C@H]1C[C@@H](c2c(-c3ccc(F)cc3)[nH]c3c(F)cc(F)cc32)C1` [Compound 326], the IC50 under setting [1] was above 1000 nM.

As for `CN(C)C(=O)CCC(=O)NC[C@H]1C[C@@H](c2c(-c3ccc(F)cc3)[nH]c3c(F)cc(F)cc32)C1` [Compound 454, N^1-(((1s,3s)-3-(5,7-difluoro-2-(4-fluorophenyl)-1H-indol-3-yl)cyclobutyl)methyl)-N^4,N^4-dimethylsuccinamide], the IC50 under setting [1] is above 1000 nM. On to `Fc1ccc(-c2[nH]c3c(F)cc(F)cc3c2C2CC(CN[C@@H]3CCOC3)C2)cc1` (some centres unmarked) [Compound 391], for which the IC50 under setting [1] was above 1000 nM. On to `O=C(NC[C@H]1C[C@H](c2c(-c3ccc(F)cc3)[nH]c3c(F)cc(F)cc32)C1)c1cccnn1` [Compound 297], for which the IC50 under setting [1] is above 1000 nM. Still for that read-out and setting: the same measure for `NCCNCC1CC(c2c(-c3ccc(F)cc3)[nH]c3c(F)cc(F)cc23)C1` (centres unmarked) [Compound 388]: 250 to 1000 nM; for `CC(C)(O)CC(=O)NC1CC(Cc2c(-c3ccc(F)cc3)[nH]c3c(F)cc(F)cc23)C1` (centres unmarked) [Compound 160, N-[3-[[5,7-difluoro-2-(4-fluorophenyl)-1H-indol-3-yl]methyl]cyclobutyl]-3-hydroxy-3-methylbutanamide]: 250 to 1000 nM.

`O=C1CC[C@@H](C(=O)NC[C@H]2C[C@H](c3c(-c4ccc(F)cc4)[nH]c4c(F)cc(F)cc43)C2)N1` [Compound 235]: the IC50 under setting [1] is above 1000 nM. Still for that read-out and setting: then `O=S(=O)(NC[C@H]1C[C@H](c2c(-c3ccc(F)cc3)[nH]c3c(F)cc(F)cc32)C1)NC(CO)C(F)(F)F` (some centres unmarked) [Compound 358], with above 1000 nM. Still for that read-out and setting: then `CCS(=O)(=O)N[C@H]1C[C@@H](c2c(-c3ccc(F)cc3)[nH]c3c(F)cc(F)cc32)C1` [Compound 82], with above 1000 nM; and `CC(C(=O)NC[C@H]1C[C@@H](c2c(-c3ccc(F)cc3)[nH]c3c(F)cc(F)cc32)C1)n1ccnc1` (some centres unmarked) [Compound 299], with above 1000 nM.

For the setting “Thallium Assay (IC50)”, `NC1CC(c2c(-c3ccc(F)cc3)[nH]c3c(F)cc(F)cc23)C1` (centres unmarked) [Compound 14, 3-[5,7-difluoro-2-(4-fluorophenyl)-1H-indol-3-yl]cyclobutanamine] gave an IC50 below 250 nM.

As for `O=C(CCN1CCCC1)N[C@H]1C[C@@H](c2c(-c3ccc(F)cc3)[nH]c3c(F)cc(F)cc32)C1` [Compound 44], the concentration for half-maximal inhibition (IC50) under setting [1] was above 1000 nM. Same read-out and setting: then `O=C1CCC(NCC2CC(c3c(-c4ccc(F)cc4)[nH]c4c(F)cc(F)cc34)C2)C(=O)N1` (centres unmarked) [Compound 382], with 250 to 1000 nM; and `O=C(NC[C@H]1C[C@H](c2c(-c3ccc(F)cc3)[nH]c3c(F)cc(F)cc32)C1)[C@@H]1C[C@@H](F)CN1` [Compound 205], with below 250 nM. As for `Fc1ccc(-c2[nH]c3c(F)cc(F)cc3c2C2CC(CNCC(F)F)C2)cc1` (centres unmarked) [Compound 379], under setting [1], the 50% inhibitory concentration (IC50) fell in the range of 250 to 1000 nM.

In the case of `O[C@H]1C[C@H](NCC2CC(c3c(-c4ccc(F)cc4)[nH]c4c(F)cc(F)cc34)C2)C1` (some centres unmarked) [Compound 387], the IC50 under setting [1] was in the range of 250 to 1000 nM. On the same count and under the same terms, then `O=C(CC1CCOCC1)N[C@H]1C[C@H](c2c(-c3ccc(F)cc3)[nH]c3c(F)cc(F)cc32)C1` [Compound 100], with above 1000 nM; and `CC1(C(=O)NC[C@H]2C[C@@H](c3c(-c4ccc(F)cc4)[nH]c4c(F)cc(F)cc43)C2)CCC(=O)NC1` (mixture of isomers) [Compound 306], with above 1000 nM.

As for `O=C1NCCC1CNS(=O)(=O)NC[C@H]1C[C@H](c2c(-c3ccc(F)cc3)[nH]c3c(F)cc(F)cc32)C1` (some centres unmarked) [Compound 345], under setting [1], the half-maximal inhibitory concentration (IC50) is above 1000 nM. Take `CN1CCC(CC(=O)NC[C@H]2C[C@@H](c3c(-c4ccc(F)cc4)[nH]c4c(F)cc(F)cc43)C2)CC1` [Compound 239]: the concentration for half-maximal inhibition (IC50) under setting [1] was above 1000 nM. Same read-out and setting: the same measure for `COCC(C)NS(=O)(=O)NC[C@H]1C[C@H](c2c(-c3ccc(F)cc3)[nH]c3c(F)cc(F)cc32)C1` (mixture of isomers) [Compound 342]: above 1000 nM; for `O=C(NC1CC(c2c(-c3ccc(F)cc3)[nH]c3c(F)cc(F)cc23)C1)OCc1ccccc1` (centres unmarked) [Compound 13, benzyl N-[3-[5,7-difluoro-2-(4-fluorophenyl)-1H-indol-3-yl]cyclobutyl]carbamate]: above 1000 nM; for `O=C(NC[C@H]1C[C@H](c2c(-c3ccc(F)cc3)[nH]c3c(F)cc(F)cc32)C1)c1ccc[nH]c1=O` [Compound 330]: above 1000 nM. Take `CC(C(=O)N[C@H]1C[C@@H](c2c(-c3ccc(F)cc3)[nH]c3c(F)cc(F)cc32)C1)n1ccnc1` (mixture of isomers) [Compound 40]: the IC50 under setting [1] was above 1000 nM.

Turning to `O=C(N[C@H]1C[C@@H](c2c(-c3ccc(F)cc3)[nH]c3c(F)cc(F)cc32)C1)C1(O)CC1` [Compound 76], the half-inhibitory concentration (IC50) under setting [1] fell in the range of 250 to 1000 nM.

On to `CO[C@@H](C)C(=O)NC[C@H]1C[C@H](c2c(-c3ccc(F)cc3)[nH]c3c(F)cc(F)cc32)C1` [Compound 270], for which the 50% inhibitory concentration (IC50) under setting [1] was above 1000 nM. Consider `O=S(=O)(NC[C@H]1C[C@H](c2c(-c3ccc(F)cc3)[nH]c3c(F)cc(F)cc32)C1)N[C@@H]1CCC[C@@H]1O` [Compound 357], for which the IC50 under setting [1] was above 1000 nM. As for `O=C1CC(CC(=O)N[C@H]2C[C@H](c3c(-c4ccc(F)cc4)[nH]c4c(F)cc(F)cc43)C2)CC(=O)N1` [Compound 132], the IC50 under setting [1] was above 1000 nM.

Consider `O=C(CN1CCOCC1)N[C@H]1C[C@H](c2c(-c3ccc(F)cc3)[nH]c3c(F)cc(F)cc32)C1` [Compound 121], for which the half-maximal inhibitory concentration (IC50) under setting [1] is above 1000 nM. On the same count and under the same terms, the same measure for `CC(=O)N[C@@H](CO)C(=O)NC[C@H]1C[C@H](c2c(-c3ccc(F)cc3)[nH]c3c(F)cc(F)cc32)C1` [Compound 224]: 250 to 1000 nM; for `O=C(c1c[nH]cn1)N1CC(c2c(-c3ccc(F)cc3)[nH]c3c(F)cc(F)cc23)C1` [Compound 441, (3-(5,7-difluoro-2-(4-fluorophenyl)-1H-indol-3-yl)azetidin-1-yl)(1H-imidazol-4-yl)methanone]: 250 to 1000 nM; for `CCS(=O)(=O)NC[C@H]1C[C@H](c2c(-c3ccc(F)cc3)[nH]c3c(F)cc(F)cc32)C1` [Compound 413]: 250 to 1000 nM. `CC(C)(C)OC(=O)N1CCC[C@H]1C(=O)NC[C@H]1C[C@H](c2c(-c3ccc(F)cc3)[nH]c3c(F)cc(F)cc32)C1` [Compound 217] had an IC50 (Thallium Assay (IC50)) of 250 to 1000 nM. As for `Cn1nccc1CC(=O)N[C@H]1C[C@@H](c2c(-c3ccc(F)cc3)[nH]c3c(F)cc(F)cc32)C1` [Compound 49], under setting [1], the half-inhibitory concentration (IC50) was above 1000 nM. The same measure, in the same setting: then `O=S(=O)(N[C@H]1C[C@H](c2c(-c3ccc(F)cc3)[nH]c3c(F)cc(F)cc32)C1)c1c[nH]cn1` [Compound 150], with 250 to 1000 nM; and `CC(C)C(CO)NCC1CC(c2c(-c3ccc(F)cc3)[nH]c3c(F)cc(F)cc23)C1` (centres unmarked) [Compound 402], with above 1000 nM; and `O=C(CCN1CCCCC1)NC[C@H]1C[C@@H](c2c(-c3ccc(F)cc3)[nH]c3c(F)cc(F)cc32)C1` [Compound 293], with above 1000 nM. On to `CN(C)C(=O)CCC(=O)N[C@H]1C[C@H](c2c(-c3ccc(F)cc3)[nH]c3c(F)cc(F)cc32)C1` [Compound 123], for which, under setting [1], the IC50 is 250 to 1000 nM. On the same count and under the same terms, the same measure for `O=C(CC(=O)N1CCOCC1)N[C@H]1C[C@@H](c2c(-c3ccc(F)cc3)[nH]c3c(F)cc(F)cc32)C1` [Compound 56]: 250 to 1000 nM; for `O=C1CC(C(=O)NC[C@H]2C[C@@H](c3c(-c4ccc(F)cc4)[nH]c4c(F)cc(F)cc43)C2)CC(=O)N1` [Compound 291]: above 1000 nM.

For `NCCCNCC1CC(c2c(-c3ccc(F)cc3)[nH]c3c(F)cc(F)cc23)C1` (centres unmarked) [Compound 409], the IC50 under setting [1] was above 1000 nM.

As for `O=C(NC[C@H]1C[C@@H](c2c(-c3ccc(F)cc3)[nH]c3c(F)cc(F)cc32)C1)C1COC1` [Compound 226], the IC50 under setting [1] was 250 to 1000 nM. The same measure, in the same setting: the same measure for `NC12CC(NCC3CC(c4c(-c5ccc(F)cc5)[nH]c5c(F)cc(F)cc45)C3)(C1)C2` (centres unmarked) [Compound 384]: 250 to 1000 nM; for `O=C(N[C@H]1C[C@H](c2c(-c3ccc(F)cc3)[nH]c3c(F)cc(F)cc32)C1)C(F)F` [Compound 144]: below 250 nM.

Take `O=C(NC[C@H]1C[C@H](c2c(-c3ccc(F)cc3)[nH]c3c(F)cc(F)cc32)C1)[C@@H]1CCCN1` [Compound 199]: under setting [1], the IC50 is below 250 nM. On the same count and under the same terms, the same measure for `CC(=O)N1CC[C@H](C(=O)NC[C@H]2C[C@H](c3c(-c4ccc(F)cc4)[nH]c4c(F)cc(F)cc43)C2)C1` [Compound 274]: above 1000 nM; for `O=C1NC(=O)C(CCS(=O)(=O)N[C@H]2C[C@H](c3c(-c4ccc(F)cc4)[nH]c4c(F)cc(F)cc43)C2)N1` (some centres unmarked) [Compound 151]: 250 to 1000 nM.

On to `CC(C(=O)N[C@H]1C[C@H](c2c(-c3ccc(F)cc3)[nH]c3c(F)cc(F)cc32)C1)n1ccnc1` (mixture of isomers) [Compound 105], for which the 50% inhibitory concentration (IC50) under setting [1] is above 1000 nM.

As for `O=c1ccc2cc(S(=O)(=O)N[C@H]3C[C@H](c4c(-c5ccc(F)cc5)[nH]c5c(F)cc(F)cc54)C3)ccc2[nH]1` [Compound 155], the IC50 under setting [1] is above 1000 nM. As for `CNCCC(=O)N[C@H]1C[C@@H](c2c(-c3ccc(F)cc3)[nH]c3c(F)cc(F)cc32)C1` [Compound 75], the IC50 under setting [1] is 250 to 1000 nM. Still for that read-out and setting: then `Cn1cnc(CNS(=O)(=O)NC[C@H]2C[C@H](c3c(-c4ccc(F)cc4)[nH]c4c(F)cc(F)cc43)C2)c1` [Compound 367], with above 1000 nM; and `O=C1CC(C(=O)NC[C@H]2C[C@@H](c3c(-c4ccc(F)cc4)[nH]c4c(F)cc(F)cc43)C2)CN1` (some centres unmarked) [Compound 294], with above 1000 nM. On the same count and under the same terms, then `CC(=O)NC[C@H]1C[C@H](c2c(-c3ccc(F)cc3)[nH]c3c(F)cc(F)cc32)C1` [Compound 195], with below 250 nM.
